Data reported in patent US20090217402A1, “METHODS AND COMPOSITIONS FOR MODULATING THE ACTIVITY OF PEPTIDASES IN MACROPHAGE AND MACROPHAGE-LIKE CELLS” (Emory University, priority 2005, published 2009).
Entries after “also recorded” stand apart in the source; their conditions may differ.

Tested on: B16-F10 melanoma cells
Test: B16-F10 melanoma tumor growth in wild type and ACE 10/10 mice with co-administered drug
Type: in vivo, mouse
Conditions: intradermal B16-F10 melanoma
Method: Quantitation of B16-F10 tumor growth in wild type and ACE 10/10 mice was also conducted between groups in which the ACE inhibitor captopril was also administered. […] This experiment establishes that it is the presence of ACE in the ACE 10/10 mice that is important in the observed effects on tumor growth compared to wild-type mice.
B16-F10 tumor protocol. B16-F10 melanoma cell line was obtained from ATCC (American Type Culture Collection, Manassas, Va., USA). Cells were cultured in DMEM supplemented with 4 mM L-glutamine, 4.5 g/l glucose, 10% FBS, and antibiotics under humidified air with 5% CO2 at 37° C. […] The supernatant was removed, cell pellets were resuspended in PBS, and the cell number was counted.
Mice aged 8 to 12 weeks received exponentially growing cells (1×10^6) interdermally into the dorsal skin using a disposable 27-gauge needle under anesthesia (28 mg/kg avertin, intraperitoneally). Measurements of tumor size (longest and shortest diameters) were done using calipers at the 11th and 14th day, and body weight was measured at the day of inoculation (Day 0) and at harvesting (the 14th day), respectively. Tumor volume was calculated by the formula for a prolate spheroid according to the equation (L [longest diameter] H S2 [shortest diameter] H 0.52)=tumor volume.

SMILES: C[C@H](CS)C(=O)N1CCC[C@H]1C(=O)O [captopril]
- B16-F10 tumor growth (resistance of ACE 10/10 mice to melanoma): comparable to wild-type mice in terms of susceptibility to tumor growth

SMILES: CCCCc1nc(Cl)c(CO)n1Cc1ccc(-c2ccccc2-c2nn[nH]n2)cc1 [losartan]
- B16-F10 tumor growth (resistance of ACE 10/10 mice to melanoma): does not inhibit the ability of the ACE 10/10 mice to resist melanoma; also recorded: did not inhibit the ability of the ACE 10/10 mice to resist melanoma growth
